The data set in a line: storage stability of O/W emulsions. As to conditions: O/W emulsion with 0.5% emulsifier; room temperature, 45° C. and freeze-thaw cycles (3×−15° C.). The class given is physicochemical. The method, then: Here, it was paaticulaily surprising that stable emulsions were obtainale even at emulsifier concentrations of 0.5% stearylguanidinium acetate (6 months stability at room temperature, 45° C. and freeze-thaw cycles (3×−15° C.)).
In addition, emulsions 7 to 8 also illustrate the excellent emulsifying properties of other alkylguanidinium salts.

The structures appear in SMILES notation.

On to `CC(=O)O.CCCCCCCCCCCCCCCCCCNC(=N)N` [stearylguanidinium acetate], for which the stability of emulsion was found to be 6 months.

Values taken from US20060134056A1, “Use of alkylguanidines as cationic emulsifiers” (G[…], priority 2004, published 2006).
